Results taken from patent US4921941A, “Orally active antiandrogens” (Schering Corporation, priority 1987, dated 1990).

Legend:
[1] = Plasma concentrations of flutamide active metabolite in rats after single oral doses of various esters (0-4 hours), gas-liquid chromatography; assay type: in vivo, male Sprague Dawley rats; settings: rat; for Relative Rank (0-4 hour area): oral, 0-4 hour area relative to flutamide = 1.00; for Area under the 0-4 hour plasma level curve of flutamide active metabolite (0-4 Hours) / Plasma concentration of flutamide active metabolite, 2 Hours / Plasma concentration of flutamide active metabolite, 4 Hours: single oral dose, normalized to a 5 mg/kg dose of flutamide active metabolite; for Plasma concentration of flutamide active metabolite, 2 Hours / Plasma concentration of flutamide active metabolite, 4 Hours: average of 2 animals
[2] = Plasma concentrations of flutamide active metabolite for up to 16 hours after administration of esters or flutamide; assay type: in vivo, rats; settings: rat; for 0-16 hr (area under the plasma level curve of flutamide active metabolite) / Plasma concentration of flutamide active metabolite, 0.5 hr / Plasma concentration of flutamide active metabolite, 1 hr / Plasma concentration of flutamide active metabolite, 2 hr / Plasma concentration of flutamide active metabolite, 4 hr / Plasma concentration of flutamide active metabolite, 8 hr / Plasma concentration of flutamide active metabolite, 16 hr: normalized to a 5 mg/kg dose of flutamide active metabolite; for Plasma concentration of flutamide active metabolite, 0.5 hr / Plasma concentration of flutamide active metabolite, 1 hr / Plasma concentration of flutamide active metabolite, 2 hr / Plasma concentration of flutamide active metabolite, 4 hr / Plasma concentration of flutamide active metabolite, 8 hr / Plasma concentration of flutamide active metabolite, 16 hr: average of 3 animals; for Relative Rank (0-16 hr): 0-16 hr area relative to flutamide = 1.00
Description: Plasma concentrations of the flutamide active metabolite were determined by gas-liquid chromatography in 300-350 gram male Sprague Dawley rats following single oral 5 mg/kg doses of the compounds listed. […]

| Relative Rank (0-4 hour area) [1] | Area under the 0-4 hour plasma level curve of flutamide active metabolite (0-4 Hours) [1] | Plasma concentration of flutamide active metabolite, 2 Hours [1] | Plasma concentration of flutamide active metabolite, 4 Hours [1] | 0-16 hr (area under the plasma level curve of flutamide active metabolite) [2] | Plasma concentration of flutamide active metabolite, 0.5 hr [2] | Plasma concentration of flutamide active metabolite, 1 hr [2] | Plasma concentration of flutamide active metabolite, 2 hr [2] | Plasma concentration of flutamide active metabolite, 4 hr [2] | Plasma concentration of flutamide active metabolite, 8 hr [2] | Plasma concentration of flutamide active metabolite, 16 hr [2] | Relative Rank (0-16 hr) [2] | Compound |
| --- | --- | --- | --- | --- | --- | --- | --- | --- | --- | --- | --- | --- |
| 1.00 | 2400 ng·h/mL | 715 ng/mL | 974 ng/mL | 8270 ng·h/mL | 210 ng/mL | 322 ng/mL | 614 ng/mL | 722 ng/mL | 649 ng/mL | 236 ng/mL | 1.00 | CC(C)C(=O)Nc1ccc([N+](=O)[O-])c(C(F)(F)F)c1 [H (flutamide), 2-methyl-N-[4-nitro-3-(trifluoromethyl)phenyl]propanamide, reference compound] |
| 1.44 | 3450 ng·h/mL | 1103 ng/mL | 1248 ng/mL | – | – | – | – | – | – | – | – | CN(CC(=O)OC(C)(C)C(=O)Nc1ccc([N+](=O)[O-])c(C(F)(F)F)c1)C(=O)CNC(=O)[C@@H](N)CCCCN [lys--gly--sar, L-lysyl-glycyl-N-methylglycine, [1-methyl-[[4-nitro-3-(trifluoromethyl)phenyl]aminocarbonyl]ethyl]ester] |
| 2.66 | 6400 ng·h/mL | 2277 ng/mL | 1847 ng/mL | 15600 ng·h/mL | 1392 ng/mL | 1907 ng/mL | 1751 ng/mL | 1170 ng/mL | 1054 ng/mL | 256 ng/mL | 1.89 | CC(C)(OC(=O)[C@@H]1CCCN1C(=O)CNC(=O)[C@@H](N)CCCCN)C(=O)Nc1ccc([N+](=O)[O-])c(C(F)(F)F)c1.Cl.Cl [lys--gly--pro, L-lysyl-glycyl-L-proline-[1-methyl-[[4-nitro-3-(trifluoromethyl)phenyl]aminocarbonyl]ethyl]ester, dihydrochloride] |
| 1.46 | 3510 ng·h/mL | 1059 ng/mL | 1393 ng/mL | – | – | – | – | – | – | – | – | L-Proline-[1-methyl-[[4-nitro-3-trifluoromethyl)phenyl]aminocarbonyl]ethyl ]ester, hydrochloride |

| Compound | Relative Rank (0-4 hour area) [1] | Area under the 0-4 hour plasma level curve of flutamide active metabolite (0-4 Hours) [1] | Plasma concentration of flutamide active metabolite, 2 Hours [1] | Plasma concentration of flutamide active metabolite, 4 Hours [1] | 0-16 hr (area under the plasma level curve of flutamide active metabolite) [2] | Plasma concentration of flutamide active metabolite, 0.5 hr [2] | Plasma concentration of flutamide active metabolite, 1 hr [2] | Plasma concentration of flutamide active metabolite, 2 hr [2] | Plasma concentration of flutamide active metabolite, 4 hr [2] | Plasma concentration of flutamide active metabolite, 8 hr [2] | Plasma concentration of flutamide active metabolite, 16 hr [2] | Relative Rank (0-16 hr) [2] |
| --- | --- | --- | --- | --- | --- | --- | --- | --- | --- | --- | --- | --- |
| C[C@H](N)C(=O)NCC(=O)N(C)CC(=O)OC(C)(C)C(=O)Nc1ccc([N+](=O)[O-])c(C(F)(F)F)c1 [ala--gly--sar, L-alanyl-glycyl-N-methylglycine, [1-methyl-[[4-nitro-3-(trifluoromethyl)phenyl]aminocarbonyl]ethyl]ester] | 2.09 | 5020 ng·h/mL | 1952 ng/mL | 1115 ng/mL | 17200 ng·h/mL | 1079 ng/mL | 2029 ng/mL | 1365 ng/mL | 1803 ng/mL | 1005 ng/mL | 423 ng/mL | 2.08 |
| CNCC(=O)OC(C)(C)C(=O)Nc1ccc([N+](=O)[O-])c(C(F)(F)F)c1 [sar] | 1.52 | 3650 ng·h/mL | 1345 ng/mL | 958 ng/mL | – | – | – | – | – | – | – | – |
